A short description of data set [1]: Solubility in water of varenicline salts. Type of data set: physicochemical.
The nature of data set [2]: Stability studies of varenicline crystalline salts (one year storage, HPLC and XRD). To be noted: for Purity (HPLC) % 1 year later: after one year at room temperature; for Purity (HPLC) % 1 year later / Purity (HPLC) % initial / XRD result 1 year later: normal pressure, ambient atmosphere; for Stability in terms of chemical purity and polymorphic form (in words): after one year of storage; for XRD result Initial: initial polymorphic form, before storage; for Purity (HPLC) % initial: before storage at room temperature; for XRD result 1 year later: polymorphic form after one year at room temperature. Type of data set: physicochemical. The method, then:
The varenicline crystalline salts were stored under standard conditions (i.e. room temperature, normal pressure, ambient atmosphere). The samples were analyzed after one year by HPLC and XRD.

Counter-ions that a name gives are not always drawn. Some results are limits rather than exact numbers.

For varenicline fumarate [Example 2], in data set [1], the Solubility in water is recorded as >20 mg/mL and the “Solubility in water (in words)” value is “highly soluble”. Moreover, in data set [2], the “Purity (HPLC) % 1 year later” value is reported as 99.76%; the “Stability in terms of chemical purity and polymorphic form (in words)” value (shortened to “Stability in terms”) was “highly stable in terms of chemical purity and of polymorphic form”; the “XRD result Initial” value is “Form I”; the “Purity (HPLC) % initial” value was 99.84%. Further, in data set [2], the “XRD result 1 year later” value is “Form I”.

In the case of varenicline di-mesylate [Example 11], the Solubility in water in data set [1] is listed as >20 mg/mL. Besides, in data set [2], the “Purity (HPLC) % 1 year later” value is reported as 99.28%, the “XRD result Initial” value was “Form I” and the “Purity (HPLC) % initial” value was found to be 99.99%.

“varenicline S-2-pyrrolidinon-5-carboxylate [Example 14]”: in data set [2], the “Purity (HPLC) % 1 year later” value stood at 99.83%; the “Stability in terms” value was “highly stable in terms of chemical purity and in terms of polymorphic form”; the “XRD result Initial” value is given as “Form I”; the “Purity (HPLC) % initial” value turned out to be 99.99%. In addition, the “XRD result 1 year later” value in data set [2] is on record as “Form I”.

On to varenicline glycolate [Example 4], for which, in data set [2], the “Purity (HPLC) % 1 year later” value is on record as 99.57%, the “XRD result Initial” value is on record as “Form I” and the “Purity (HPLC) % initial” value is 99.95%.

Regarding `c1cnc2cc3c(cc2n1)[C@@H]1CNC[C@H]3C1` [Hydrochloride, varenicline hydrochloride, reference compound], in data set [2], the “Purity (HPLC) % 1 year later” value came out at 99.68%, the “XRD result Initial” value is listed as “Form II”, the “Purity (HPLC) % initial” value worked out at 99.91% and the “XRD result 1 year later” value is reported as “Forms II + III”.

varenicline maleate [Example 8]: in data set [1], the Solubility in water is reported as >20 mg/mL and the “Solubility in water (in words)” value is listed as “highly soluble”. Further, in data set [2], the “Purity (HPLC) % 1 year later” value was determined as 99.90%; the “Stability in terms” value is “highly stable in terms of chemical purity and of polymorphic form”; the “XRD result Initial” value is reported as “Form I”; the “Purity (HPLC) % initial” value is given as 100%. Moreover, the “XRD result 1 year later” value in data set [2] is on record as “Form I”.

For `O=C(O)C(O)c1ccccc1.c1cnc2cc3c(cc2n1)C1CNCC3C1` (racemic) [Example 10, varenicline DL-mandelate], in data set [2], the “Purity (HPLC) % 1 year later” value is reported as 95.55%, the “XRD result Initial” value was “Form I” and the “Purity (HPLC) % initial” value was 99.93%.

Consider varenicline succinate [Example 15], for which the Solubility in water in data set [1] was >20 mg/mL.

On to `O=S(=O)(O)CCS(=O)(=O)O.c1cnc2cc3c(cc2n1)C1CNCC3C1.c1cnc2cc3c(cc2n1)C1CNCC3C1` [Example 18, Varenicline Hemi-1,2-Ethane Disulfonate], for which, in data set [2], the “Purity (HPLC) % 1 year later” value is listed as 99.36%, the “XRD result Initial” value is on record as “Form I” and the “Purity (HPLC) % initial” value turned out to be 99.97%.

Consider varenicline L-malate [Malate Form II], for which, in data set [2], the “Purity (HPLC) % 1 year later” value was determined as 99.66%, the “XRD result Initial” value is recorded as “Form II”, the “Purity (HPLC) % initial” value was found to be 99.94% and the “XRD result 1 year later” value is reported as “Form II”. The “Stability in terms” value in data set [2] (listed as varenicline L-malate Form II) is “highly stable in terms of chemical purity and of polymorphic form”.

“varenicline phosphate [Phosphate Form II]”: in data set [2], the “Purity (HPLC) % 1 year later” value was 99.93%, the “XRD result Initial” value was “Form II”, the “Purity (HPLC) % initial” value is 99.89% and the “XRD result 1 year later” value was “Form II”.

For varenicline phosphate [Example 13], in data set [1], the Solubility in water is >20 mg/mL and the “Solubility in water (in words)” value was “highly soluble”. In data set [2] (listed as Phosphate Form I), the “Purity (HPLC) % 1 year later” value stood at 99.89%, the “XRD result Initial” value is “Form I”, the “Purity (HPLC) % initial” value is given as 100% and the “XRD result 1 year later” value was “Form I”. The “Stability in terms” value in data set [2] is “highly stable in terms of chemical purity and in terms of polymorphic form”.

On to varenicline oxalate [Example 12], for which the Solubility in water in data set [1] is >20 mg/mL. In addition, in data set [2], the “Purity (HPLC) % 1 year later” value is reported as 99.72%, the “XRD result Initial” value is recorded as “Form I” and the “Purity (HPLC) % initial” value came to 99.91%.

As for `O=C(O)CCCCC(=O)O.c1cnc2cc3c(cc2n1)C1CNCC3C1.c1cnc2cc3c(cc2n1)C1CNCC3C1` [Example 1, varenicline hemi-adipate], in data set [2], the “Purity (HPLC) % 1 year later” value was found to be 99.77%; the “Stability in terms” value is “highly stable in terms of chemical purity and of polymorphic form”; the “XRD result Initial” value is given as “Form I”; the “Purity (HPLC) % initial” value came to 99.89%. Further, the “XRD result 1 year later” value in data set [2] is “Form I”.

Take `O=C(O)CCC(=O)C(=O)O.c1cnc2cc3c(cc2n1)C1CNCC3C1` [Example 6, varenicline α-ketoglutarate]: in data set [2], the “Purity (HPLC) % 1 year later” value was 98.45%, the “XRD result Initial” value is “Form I” and the “Purity (HPLC) % initial” value worked out at 99.71%.

With `O=C(O)CC(=O)O.c1cnc2cc3c(cc2n1)C1CNCC3C1` [Example 9, varenicline malonate], in data set [2], the “Purity (HPLC) % 1 year later” value was found to be 99.45%, the “XRD result Initial” value is “Form I” and the “Purity (HPLC) % initial” value was 99.91%.

As for varenicline galactarate [Example 16], in data set [1], the Solubility in water is listed as >20 mg/mL and the “Solubility in water (in words)” value is reported as “highly soluble”. In addition, in data set [2], the “Purity (HPLC) % 1 year later” value amounted to 99.71%; the “Stability in terms” value was “highly stable in terms of chemical purity and of polymorphic form”; the “XRD result Initial” value is given as “Form I”; the “Purity (HPLC) % initial” value is 99.91%. The “XRD result 1 year later” value in data set [2] is “Form I”.

Turning to `CC(O)C(=O)O.c1cnc2cc3c(cc2n1)C1CNCC3C1` (racemic) [Example 17, varenicline DL-lactate], in data set [2], the “Purity (HPLC) % 1 year later” value is on record as 98.48%, the “XRD result Initial” value was “Form I” and the “Purity (HPLC) % initial” value amounted to 98.98%.

varenicline L-malate [Example 7]: in data set [1], the Solubility in water is >20 mg/mL and the “Solubility in water (in words)” value was “highly soluble”. Further, in data set [2] (listed as Malate Form I), the “Purity (HPLC) % 1 year later” value is 99.47%, the “XRD result Initial” value is reported as “Form I” and the “Purity (HPLC) % initial” value came out at 99.95%. The “Stability in terms” value in data set [2] (listed as varenicline L-malate Form I) is reported as “stable in terms of chemical purity”.

For `O=C(O)CCCC(=O)O.c1cnc2cc3c(cc2n1)C1CNCC3C1` [Example 3, varenicline glutarate], in data set [2], the “Purity (HPLC) % 1 year later” value was found to be 97.90%, the “XRD result Initial” value is on record as “Form I” and the “Purity (HPLC) % initial” value came out at 98.77%.

For orientation: solubility means how much of the substance goes into solution per volume. Take `c1cnc2cc3c(cc2n1)[C@@H]1CNC[C@H]3C1` [Example 5, varenicline hydrochloride]: in data set [1], the solubility is > 20 mg/mL.

(Values after US8440825B2, “Fumaric acid salt of varenicline” (Medichem S.A., priority 2008, dated 2013).)
